# Results as given in patent US20150024072A1, “METHODS OF TREATING A SKIN CONDITION WITH MALVA NEGLECTA” (Johnson & Johnson Consumer Companies, Inc., priority 2013, published 2015).
# System: Human dermal fibroblasts
# Assay: Hyaluronic Acid (HA) Secretion (Assay 4, ELISA)
# Format: cell-based
# Conditions: 20 ng/ml (positive control), 48 hours post-treatment
# Description: Human dermal fibroblasts were maintained in flask in growth medium consisting of DMEM plus 10% fetal bovine serum, 50 units/ml penicillin and 50 μg/ml streptomycin. Cells were seeded at 10,000 cells per well in a 96 well plate. After 24 hours incubation, cells were treated with test articles dissolved in DMSO or DMSO without extracts (as control) prepared in DMEM+2% FBS. Culture media was collected at 48 hours post-treatment, and measured for HA (Hyaluronic acid) secretion using Hyaluronan ELISA kit (Echelon, cat. #K-1200) following the manufacturer protocol. To assess activity, the colorimetric chance was measured at 405 nm and the results expressed as a fold change over untreated controls.
substance,measurement,value
TGF-b,HA secretion Fold Change,2.54 fold
